Type in all cases: cell-based
The subject of experiment [1] is human lung cancer cells (95D). Put plainly: scratch assay, migration of 95D cells. Particulars: 10 μM, 48 hours, control group 55.3 ± 3.19. How it is done:
(§1) In the scratch assay, the cell migration rate was negatively correlated with the inhibitory effect of the drug component on tumor cell migration ability. The cell migration inhibition experiment was described as follows: tumor cells were cultured in vitro, cells in logarithmic growth phase were collected and seeded evenly in a 24-well plate at a density of 1-2×10^5 cells/well; the cells were cultured in a cell incubator until a monolayer was formed; a scratch tool was used to make a “-” (straight) scratch on the monolayer of cells; the cells were washed 1-3 times with PBS, and a medium (with 2% fetal bovine serum) containing specific test components was added to the culture. Experimental grouping: PBS control group; polypeptide or derivative thereof treatment group (N1-N54), 10 μM. Three independent parallel wells were set up in each group, and the cells were cultured continuously in a cell incubator for 48 hours. […] At least 3 representative images for each well were taken. ImageJ software was used to count the migration distance of the cells, and the cell migration rate was calculated as: cell migration rate (%)=(width of original scratch−width of current scratch)/width of original scratch×100.
This example was a scratch assay to evaluate the inhibitory effect of the polypeptide or derivative thereof (N1-N54) on the migration ability of human lung cancer cells (95D). The experimental method was as described in Example 2.

Experiment [2] relates to human lung squamous carcinoma cells (NCI-H226). The experiment is described as follows: scratch assay, migration of NCI-H226 cells. Particulars: NCI-H226, 10 μM, 48 hours; control group 65.31 ± 3.19. How it is done:
as §1
This example was a scratch assay to evaluate the inhibitory effect of the polypeptide or derivative thereof (N1-N54) on the migration ability of human lung squamous carcinoma cells (NCI-H226). The experimental method was as described in Example 2.

For experiment [3], the system named is human liver adenocarcinoma cells (SK-HEP-1). The experiment is described as follows: transwell migration assay, SK-HEP-1 cells. Particulars: SK-HEP-1 transwell migration, 10 μM, 24 hours; control group 1 782 ± 108, control group 2 768 ± 86. How it is done:
The Transwell chamber system was used in the transwell cell migration experiment. The chamber has an upper layer and a lower layer, which are separated by an artificial semipermeable membrane in the middle. Cells that have migrated through the semi-permeable membrane will attach to the lower surface of the semi-permeable membrane. The migration ability is evaluated by counting the number of cells on the lower surface of the semi-permeable membrane. The number of cells that have migrated is negatively correlated with the inhibitory effect of the drug on the migration ability of the tumor cells. Transwell migration assay was performed as follows: tumor cells were cultured in vitro, cells in logarithmic growth phase were collected, and cell suspension was prepared with fresh serum-free medium at a density of 2-3×10^5 cells/mL. Cells were inoculated, 100 μL/well cell suspension (serum-free medium) in the upper chamber and 600 μL/well complete culture medium in the lower chamber. After incubated in 37° C., 5% CO2 incubator for 4-5 hours, serum-free medium (100 μL/well) was added to the control group, and serum-free medium containing polypeptide or derivative thereof (N1-N54) was added to the upper chamber of the treatment group (100 μL/well), the final concentration of the peptide or derivative thereof in the upper chamber was 10 μM. The cells were incubated continuously for 24 hours, and then fixed with methanol and stained with crystal violet. Images were taken under a microscope and the number of migrated cells was counted with ImageJ.
This example was a transwell cell migration experiment to evaluate the inhibitory effect of the polypeptide or derivative thereof (N1-N54) on the migration ability of human liver adenocarcinoma cells (SK-HEP-1). The experimental method was as described in Example 3.

The test system is the same in experiment [4]. Put plainly: transwell invasion assay, SK-HEP-1 cells. Particulars: SK-HEP-1 transwell invasion, 10 μM, 24 hours; control group 767 ± 91. The source says:
The Transwell chamber system was used in the transwell cell invasion experiment. The chamber has an upper layer and a lower layer, which are separated by an artificial semipermeable membrane in the middle. The upper surface of the semipermeable membrane is coated with a layer of artificial matrigel to simulate extracellular matrix. Cells that have invaded through the matrigel and semi-permeable membrane will attach to the lower surface of the semi-permeable membrane. The invasion ability is evaluated by counting the number of cells on the lower surface of the semi-permeable membrane. The number of cells that have invaded is negatively correlated with the inhibitory effect of the drug on the invasion ability of the tumor cells. Transwell invasion assay was performed as follows: tumor cells were cultured in vitro, cells in logarithmic growth phase were collected, and cell suspension was prepared with fresh serum-free medium at a density of 2-3×10^5 cells/mL. Cells were inoculated, 100 μL/well cell suspension (serum-free medium) in the upper chamber and 600 μL/well complete culture medium in the lower chamber. After incubated in 37° C., 5% CO2 incubator for 4-5 hours, serum-free medium (100 μL/well) was added to the control group, and serum-free medium containing polypeptide or derivative thereof (N1-N54) was added to the upper chamber of the treatment group (100 μL/well), the final concentration of the peptide or derivative thereof in the upper chamber was 10 μM. The cells were incubated continuously for 24 hours, and then fixed with methanol and stained with crystal violet. Images were taken under a microscope and the number of invaded cells was counted with ImageJ.
This example was a transwell cell invasion experiment to evaluate the inhibitory effect of the polypeptide or derivative thereof (N1-N54) on the invasion ability of human liver adenocarcinoma cells (SK-HEP-1). The experimental method was as described in Example 4.

Experiment [5] relates to human oral epidermoid carcinoma KB cells. Put plainly: scratch assay, migration of KB cells. Particulars: 10 μM, 48 hours, control group 54.03 ± 4.21. How it is done: as §1
This example was a scratch assay to evaluate the inhibitory effect of the polypeptide or derivative thereof (N1-N54) on the migration ability of human oral epidermoid carcinoma cells (KB). The experimental method was as described in Example 2.

In experiment [6] the test system is human pharyngeal squamous-cell carcinoma cells (Fadu). The experiment is described as follows: scratch assay, migration of Fadu cells. Particulars: 10 μM, 48 hours, control group 28.76 ± 4.08. How it is done:
as §1
This example was a scratch assay to evaluate the inhibitory effect of the polypeptide or derivative thereof (N1-N54) on the migration ability of human pharyngeal squamous-cell carcinoma cells (Fadu). The experimental method was as described in Example 2.

For experiment [7], the system named is human thyroid cancer cells (FRO). Put plainly: scratch assay, migration of FRO cells. Particulars: 10 μM, 48 hours, control group 60.34 ± 8.32. How it is done: as §1
This example was a scratch assay to evaluate the inhibitory effect of the polypeptide or derivative thereof (N1-N54) on the migration ability of human thyroid cancer cells (FRO). The experimental method was as described in Example 2.

Experiment [8] relates to human prostate cancer cells (22RV1). Put plainly: scratch assay, migration of 22RV1 cells. Particulars: 22RV1, 10 μM, 48 hours; control group 25.41 ± 5.01. How it is done: as §1
This example was a scratch assay to evaluate the inhibitory effect of the polypeptide or derivative thereof (N1-N54) on the migration ability of human prostate cancer cells (22RV1). The experimental method was as described in Example 2.

Ends that are not written are not given here. PEG = not defined here

For “N1: polypeptide with the amino acid sequence set forth in SEQ ID NO: 1 (YRVRFLAKENVTQDAEDN)”, the “Migration rate (%) (mean ± SD, P)” value in experiment [1] is given as 27.31 ± 4.35,** %; in experiment [2], 12.68 ± 9.07,*** %; in experiment [5] it was 7.49 ± 2.99,*** %; in experiment [6] it was 5.68 ± 2.86,*** %; in experiment [7], 7.45 ± 2.78,*** %; in experiment [8], 7.26 ± 3.36,** %. Further, in experiment [3], the “Number of cells (mean ± SD, P), migrated cells” value is given as 87 ± 10,****. In addition, in experiment [4], the “Number of cells (mean ± SD, P), invaded cells” value was 343 ± 38,***.

As to “N2: SEQ ID NO: 1 with deletion of one amino acid (position 18) at the carboxyl terminal (YRVRFLAKENVTQDAED)”, the “Migration rate (%) (mean ± SD, P)” value in experiment [1] is given as 36.44 ± 4.16,** %; in experiment [2] it was 12.42 ± 8.44,*** %; in experiment [5] it was 6.82 ± 3.25,*** %; in experiment [6], 10.71 ± 2.30,** %; in experiment [7], 22.88 ± 5.43,** %; in experiment [8], 6.48 ± 2.97,** %. For the same substance, the “Number of cells (mean ± SD, P), migrated cells” value in experiment [3] is recorded as 104 ± 10,****. For the same substance, the “Number of cells (mean ± SD, P), invaded cells” value in experiment [4] was 432 ± 47,**.

As for “N3: SEQ ID NO: 1 with deletion of position 18 and PEG modification at the amino terminal ({PEG}-YRVRFLAKENVTQDAED; reading uncertain)”, the “Migration rate (%) (mean ± SD, P)” value in experiment [1] is given as 30.19 ± 5.91,** %; in experiment [2], 16.38 ± 6.85,*** %; in experiment [5] it was 9.95 ± 2.19,*** %; in experiment [6] it was 12.97 ± 3.58,** %; in experiment [7], 3.51 ± 1.34,*** %; in experiment [8], 6.15 ± 4.65,** %. Further, the “Number of cells (mean ± SD, P), migrated cells” value in experiment [3] is 112 ± 10,****. In addition, the “Number of cells (mean ± SD, P), invaded cells” value in experiment [4] is recorded as 372 ± 62,***.

For the substance “N4: SEQ ID NO: 1 with deletion of positions 15-18 and positions 1-3 (RFLAKENVTQD)”, the “Migration rate (%) (mean ± SD, P)” value is 31.65 ± 3.82,** % in experiment [1]; 10.00 ± 10.27,** % in experiment [2]; 5.96 ± 2.32,*** % in experiment [5]; 14.32 ± 2.67,** % in experiment [6]; 11.34 ± 2.73,*** % in experiment [7]; 13.44 ± 3.24,* % in experiment [8]. In addition, in experiment [3], the “Number of cells (mean ± SD, P), migrated cells” value is given as 357 ± 21,***. Moreover, the “Number of cells (mean ± SD, P), invaded cells” value in experiment [4] was 411 ± 75,**.

“N5: SEQ ID NO: 1 with addition of one amino acid at the carboxyl terminal and deletion of positions 1-3 (RFLAKENVTQDAEDNC)”: the “Migration rate (%) (mean ± SD, P)” value in experiment [1] is on record as 28.27 ± 5.00,** %; in experiment [2], 10.65 ± 9.94,*** %; in experiment [5] it was 9.62 ± 3.84,*** %; in experiment [6] it was 9.07 ± 2.08,*** %; in experiment [7], 4.71 ± 1.90,*** %; in experiment [8] it was 10.37 ± 3.53,* %. Moreover, the “Number of cells (mean ± SD, P), migrated cells” value in experiment [3] is 167 ± 12,****. Also, the “Number of cells (mean ± SD, P), invaded cells” value in experiment [4] was 353 ± 52,***.

On to “N6: SEQ ID NO: 1 with deletion of four amino acids at the carboxyl terminal (positions 15-18) (YRVRFLAKENVTQD)”, for which the “Migration rate (%) (mean ± SD, P)” value in experiment [1] is listed as 39.20 ± 4.24,** %; in experiment [2], 19.72 ± 8.97,** %; in experiment [5], 15.79 ± 3.16,** %; in experiment [6] it was 11.34 ± 2.04,** %; in experiment [7], 3.24 ± 1.80,*** %; in experiment [8] it was 12.31 ± 2.85,* %. Besides, the “Number of cells (mean ± SD, P), migrated cells” value in experiment [3] is listed as 157 ± 13,****. Moreover, the “Number of cells (mean ± SD, P), invaded cells” value in experiment [4] is given as 145 ± 29,****.

With “N7: SEQ ID NO: 1 with addition of one amino acid at the carboxyl terminal and substitution A15R (YRVRFLAKENVTQDREDNC)”, the “Migration rate (%) (mean ± SD, P)” value in experiment [1] is on record as 35.72 ± 3.68,** %; in experiment [2], 18.83 ± 4.53,*** %; in experiment [5], 11.11 ± 3.86,*** %; in experiment [6] it was 13.12 ± 3.56,** %; in experiment [7] it was 5.73 ± 2.04,*** %; in experiment [8] it was 6.54 ± 2.24,** %. Also, in experiment [3], the “Number of cells (mean ± SD, P), migrated cells” value was 127 ± 16,****. In addition, in experiment [4], the “Number of cells (mean ± SD, P), invaded cells” value is 463 ± 52,**.

For “N8: SEQ ID NO: 1 with deletion of positions 15-18 and positions 3, 4 and 11 (YRFLAKENTQD)”, the “Migration rate (%) (mean ± SD, P)” value is 35.13 ± 4.45,** % in experiment [1]; 20.29 ± 4.29,*** % in experiment [2]; 11.55 ± 1.62,*** % in experiment [5]; 9.54 ± 5.75,** % in experiment [6]; 7.28 ± 2.89,*** % in experiment [7]; 8.75 ± 1.98,** % in experiment [8]. For the same substance, in experiment [3], the “Number of cells (mean ± SD, P), migrated cells” value was 139 ± 13,****. The “Number of cells (mean ± SD, P), invaded cells” value in experiment [4] was 277 ± 38,****.
